The text below walks through data of US12509437B2, “Substituted thiophene carboxamides and derivatives thereof as microbicides” (Bayer Aktiengesellschaft, priority 2019, dated 2025).

The structures appear in SMILES notation.

The nature of this data set: LogP by HPLC on reversed phase columns (EEC directive 79/831 Annex V.A8). Type of data set: physicochemical. The protocol: [table] If more than one Log P value is available within the same method, all the values are given and separated by “+”. Calibration was done with straight-chain alkan2-ones (with 3 to 16 carbon atoms) with known Log P values (measurement of Log P values using retention times with linear interpolation between successive alkanones). Lambda-max-values were determined using UV-spectra from 200 nm to 400 nm and the peak values of the chromatographic signals.

[1] abbreviates: method [a]: LC-UV, acidic range, 0.1% formic acid in water and acetonitrile as eluent.

Turning to `CCNC(=O)SC[C@H](NC(=O)c1sc(Cl)c(Cl)c1C)C(=O)OC` [I.120], where the note is “method [a]”, the LogP was 3.22^[a].

On to `CNC(=S)SC[C@H](NC(=O)c1sc(Cl)c(Cl)c1C)C(=O)OC` [I.121], for which, for the setting “method [a]”, the LogP is 3.33^[a].

Consider `CCOC(=O)CC(NC(=O)c1sc(Cl)c(Cl)c1C)C(=O)OCC` (centres unmarked) [I.123], for which, under “method [a]”, the LogP was 3.76^[a].

Take `CCOC(=O)CCC(NC(=O)c1sc(Cl)c(Cl)c1C)C(=O)OCC` (centres unmarked) [I.124]: under “method [a]”, the LogP was 3.84^[a].

For the molecule `COC(=O)[C@H](CC(=O)OC(C)(C)C)NC(=O)c1sc(Cl)c(Cl)c1C` [I.125], for the setting “method [a]”, the LogP was 4.17^[a].

For the molecule `CCOC(=O)C(CSC(C)=O)NC(=O)c1sc(Cl)c(Cl)c1C` (centres unmarked) [I.126], the LogP (method [a]) is 3.51^[a].

For the molecule `Cc1c(C(=S)NC2(C(=O)OC3CCC3)CC2)sc(Br)c1Br` [I.127], the LogP (method [a]) is 4.66^[a].

`Cc1c(C(=O)NC2(C(N)=O)CC2)sc(Br)c1Br` [I.129]: where the note is “method [a]”, the LogP is 2.07^[a].

As to `CNC(=O)C1(NC(=O)c2sc(Br)c(Br)c2C)CC1` [I.130], the LogP (method [a]) was 2.21^[a].

`Cc1c(C(=O)NC2(C(=O)NC3CCC3)CC2)sc(Br)c1Br` [I.135]: the LogP (method [a]) was 2.94^[a].

Consider `COC(=O)C(CCC(N)=O)NC(=O)c1sc(Br)c(Br)c1C` (centres unmarked) [I.138], for which, for the setting “method [a]”, the LogP is 2.13^[a].

`CCOC(=O)C1(NC(=O)c2sc(Br)c(Br)c2C)CCOCC1` [I.139]: for the setting “method [a]”, the LogP was 3.17^[a].

For `Cc1c(C(=O)NC(C(=O)OCc2ccccc2)C2CC2)sc(Cl)c1Cl` (centres unmarked) [I.140], the LogP (method [a]) is 4.53^[a].

`Cc1c(C(=O)NC2(C(=O)OC(C)C)CCC2)sc(Cl)c1Cl` [I.141]: the LogP (method [a]) is 4.05^[a].

With `COC(=O)C1(NC(=O)c2sc(Cl)c(Cl)c2C)CC(C)(C)C1` [I.142], where the note is “method [a]”, the LogP was 4.05^[a].

In the case of `COC(=O)C1(NC(=O)c2sc(Cl)c(Cl)c2C)CC(F)(F)C1` [I.143], the LogP (method [a]) was 3.43^[a].

For the molecule `COC(=O)C1(NC(=O)c2sc(Cl)c(Cl)c2C)COC1` [I.144], under “method [a]”, the LogP is 2.52^[a].

With `Cc1c(C(=O)NC2(C(=O)OC(C)(C)C)CC(F)(F)C2)sc(Cl)c1Cl` [I.145], the LogP (method [a]) was 4.48^[a].

As to `CCOC(=O)C1(NC(=O)c2sc(Cl)c(Cl)c2C)CSC1` [I.146], the LogP (method [a]) was 3.60^[a].

Take `Cc1c(C(=O)NC2CCOC2=O)sc(Cl)c1Cl` (centres unmarked) [I.147]: under setting [1], the LogP was 2.40^[a].

For `CCOC(=O)[C@H](CO)NC(=O)c1sc(Cl)c(Cl)c1C` [I.148], the LogP (method [a]) was 2.53^[a].

As to `COC(=O)C(C)NC(=S)c1sc(Br)c(Br)c1C` (centres unmarked) [I.149], under “method [a]”, the LogP was 4.05^[a].

On to `CCOC(=O)C(C)NC(=S)c1sc(Br)c(Br)c1C` (centres unmarked) [I.150], for which the LogP (method [a]) is 4.38^[a].

In the case of `Cc1c(C(=O)NC2(C#N)CCC(C3CCCCC3)CC2)sc(Br)c1Br` (centres unmarked) [I.151], the LogP under setting [1] was 6.06^[a].

Take `Cc1c(C(=O)NC(C)(C#N)C2CC2)sc(Br)c1Br` (centres unmarked) [I.152]: for the setting “method [a]”, the LogP is 3.50^[a].

Regarding `Cc1c(C(=O)NC(C(=O)OC2CCC2)C2CC2)sc(Cl)c1Cl` (centres unmarked) [I.153], under “method [a]”, the LogP was 4.44^[a].

On to `Cc1c(C(=O)NC(C(=O)OC(C)C)C2CC2)sc(Cl)c1Cl` (centres unmarked) [I.154], for which, under “method [a]”, the LogP is 4.23^[a].

As to `Cc1c(C(=O)NC2(C(=O)OCC3CC3)CCC2)sc(Cl)c1Cl` [I.155], the LogP (method [a]) was 4.19^[a].

On to `Cc1c(C(=O)NC2(C(=O)OC(C)(C)C)CCC2)sc(Cl)c1Cl` [I.156], for which the LogP (method [a]) was 4.55^[a].

Consider `CCCCOC(=O)C1(NC(=O)c2sc(Cl)c(Cl)c2C)CCC1` [I.157], for which the LogP (method [a]) was 4.59^[a].

Turning to `Cc1c(C(=O)NC2(C(=O)OC3CCCCC3)CCC2)sc(Cl)c1Cl` [I.158], under “method [a]”, the LogP was 5.08^[a].

In the case of `Cc1c(C(=O)NC2(C(N)=S)CC2)sc(Cl)c1Cl` [I.159], where the note is “method [a]”, the LogP was 2.54^[a].

On to `CNC(=O)C1(NC(=O)c2sc(Cl)c(Cl)c2C)CC1` [I.160], for which the LogP (method [a]) is 2.12^[a].

Consider `Cc1c(C(=O)NC(C(=O)OC(C)(C)C)C2CC2)sc(Cl)c1Cl` (centres unmarked) [I.161], for which, where the note is “method [a]”, the LogP was 4.70^[a].

On to `Cc1c(C(=O)N[C@H]2CCCNC2=O)sc(Cl)c1Cl` [I.162], for which the LogP under setting [1] was 2.12^[a].
